From ChEMBL document CHEMBL5500369, “Design, synthesis, and biological evaluation of 5-(1H-indol-5-yl)isoxazole-3-carboxylic acids as novel xanthine oxidase inhibitors” (Eur J Med Chem, 2024)

Target: T1, Xanthine dehydrogenase/oxidase (Bos taurus, UniProt P80457)
Test: Potency index, ratio of Allopurinol IC50 to test compound IC50 for inhibition of bovine xanthine oxidase using xanthine as substrate by measuring uric acid formation measured 30 secs interval for 5 mins by spectrophotometry analysis
Details: cattle; call rule not given here

T1 sequence (P80457 whole entry): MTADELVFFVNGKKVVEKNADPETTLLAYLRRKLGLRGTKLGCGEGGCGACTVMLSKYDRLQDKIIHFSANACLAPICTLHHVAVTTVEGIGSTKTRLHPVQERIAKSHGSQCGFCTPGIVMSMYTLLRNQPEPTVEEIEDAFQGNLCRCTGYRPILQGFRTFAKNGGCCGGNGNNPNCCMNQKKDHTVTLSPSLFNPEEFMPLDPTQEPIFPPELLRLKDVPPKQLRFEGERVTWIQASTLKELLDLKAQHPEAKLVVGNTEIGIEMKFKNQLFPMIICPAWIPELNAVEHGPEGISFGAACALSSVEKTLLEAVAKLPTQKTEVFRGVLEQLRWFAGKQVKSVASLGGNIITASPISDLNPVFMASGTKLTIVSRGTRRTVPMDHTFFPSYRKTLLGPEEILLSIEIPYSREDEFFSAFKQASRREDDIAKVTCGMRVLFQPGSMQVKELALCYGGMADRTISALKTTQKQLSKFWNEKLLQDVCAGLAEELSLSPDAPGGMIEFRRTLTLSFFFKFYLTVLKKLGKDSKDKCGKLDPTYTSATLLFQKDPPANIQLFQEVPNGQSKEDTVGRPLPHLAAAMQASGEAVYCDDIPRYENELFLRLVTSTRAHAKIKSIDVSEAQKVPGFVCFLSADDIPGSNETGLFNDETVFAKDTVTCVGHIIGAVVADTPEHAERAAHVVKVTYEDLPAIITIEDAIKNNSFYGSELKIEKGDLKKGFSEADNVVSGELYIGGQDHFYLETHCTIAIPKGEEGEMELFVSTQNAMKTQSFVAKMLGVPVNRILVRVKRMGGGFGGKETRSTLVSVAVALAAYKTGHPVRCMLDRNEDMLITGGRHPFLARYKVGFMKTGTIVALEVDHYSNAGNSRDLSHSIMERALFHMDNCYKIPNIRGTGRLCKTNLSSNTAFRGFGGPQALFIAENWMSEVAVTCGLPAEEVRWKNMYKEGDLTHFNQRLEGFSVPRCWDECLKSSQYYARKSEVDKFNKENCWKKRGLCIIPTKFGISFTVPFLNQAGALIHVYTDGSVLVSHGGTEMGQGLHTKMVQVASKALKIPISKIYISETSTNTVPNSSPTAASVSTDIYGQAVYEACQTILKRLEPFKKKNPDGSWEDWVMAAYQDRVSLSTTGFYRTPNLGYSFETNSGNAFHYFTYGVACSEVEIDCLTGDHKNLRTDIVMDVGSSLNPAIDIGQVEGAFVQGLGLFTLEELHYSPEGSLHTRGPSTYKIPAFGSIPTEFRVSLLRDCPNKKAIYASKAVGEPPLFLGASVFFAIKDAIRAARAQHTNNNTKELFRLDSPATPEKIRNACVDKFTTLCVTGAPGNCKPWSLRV

SMILES	Ratio IC50
CC(C)n1cc(C#N)c2cc(-c3cc(C(=O)O)no3)ccc21	22

Target: T1, Xanthine dehydrogenase/oxidase
Test: Binding affinity to bovine xanthine oxidase assessed as inhibition constant
Details: not given

Ki [nM]	SMILES
40	CC(C)n1cc(C#N)c2cc(-c3cc(C(=O)O)no3)ccc21

Target: T1, Xanthine dehydrogenase/oxidase
Test: Inhibition of bovine xanthine oxidase using xanthine as substrate at 10.0 uM measured 30 secs interval for 5 mins by spectrophotometry relative to control
Details: cattle

inhibition at 10 µM [%]	SMILES
< 50	CC(C)=Cn1ccc2cc(-c3cc(C(=O)O)no3)ccc21
< 50	CCOC(=O)c1cc(-c2ccc3c(c2)c(C#N)cn3C(C)C)on1

Target: T1, Xanthine dehydrogenase/oxidase
Test: Mixed type inhibition of bovine xanthine oxidase assessed as increase in Km with decrease in Vmax using xanthine as substrate at upto 0.30 uM by Lineweaver-Burk plot analysis
Details: cattle, 0.3 µM

inhibition (INH)	SMILES
Active	CC(C)n1cc(C#N)c2cc(-c3cc(C(=O)O)no3)ccc21

Target: T1, Xanthine dehydrogenase/oxidase
Test: Inhibition of bovine xanthine oxidase using xanthine as substrate by measuring uric acid formation measured 30 secs interval for 5 mins by spectrophotometry analysis
Details: not given

IC50 [nM]	SMILES
190	CC(C)=Cn1cc(C#N)c2cc(-c3cc(C(=O)O)no3)ccc21
200	N#Cc1cn(Cc2ccccc2Cl)c2ccc(-c3cc(C(=O)O)no3)cc12
3100	N#Cc1c[nH]c2ccc(-c3cc(C(=O)O)no3)cc12
380	CC(C)CCn1cc(C#N)c2cc(-c3cc(C(=O)O)no3)ccc21
560	CCn1cc(C#N)c2cc(-c3cc(C(=O)O)no3)ccc21
260	Cc1ccccc1Cn1cc(C#N)c2cc(-c3cc(C(=O)O)no3)ccc21
130	CC(C)n1cc(C#N)c2cc(-c3cc(C(=O)O)no3)ccc21
240	CC(C)Cn1cc(C#N)c2cc(-c3cc(C(=O)O)no3)ccc21
570	CC#Cn1cc(C#N)c2cc(-c3cc(C(=O)O)no3)ccc21
390	C=CCn1cc(C#N)c2cc(-c3cc(C(=O)O)no3)ccc21
600	N#Cc1cn(Cc2ccc(F)cc2)c2ccc(-c3cc(C(=O)O)no3)cc12
1260	N#Cc1cn(Cc2ccc(Cl)cc2)c2ccc(-c3cc(C(=O)O)no3)cc12
600	CCCCCn1cc(C#N)c2cc(-c3cc(C(=O)O)no3)ccc21
320	CCCn1cc(C#N)c2cc(-c3cc(C(=O)O)no3)ccc21
540	CCCCn1cc(C#N)c2cc(-c3cc(C(=O)O)no3)ccc21
310	N#Cc1cn(Cc2ccccc2F)c2ccc(-c3cc(C(=O)O)no3)cc12
270	N#Cc1cn(CC2CCCC2)c2ccc(-c3cc(C(=O)O)no3)cc12
1170	N#Cc1cn(Cc2ccc(Br)cc2)c2ccc(-c3cc(C(=O)O)no3)cc12
1290	N#Cc1cn(Cc2cccc(F)c2)c2ccc(-c3cc(C(=O)O)no3)cc12
1840	N#Cc1cn(Cc2cccc(Cl)c2)c2ccc(-c3cc(C(=O)O)no3)cc12
1030	N#Cc1cn(Cc2ccccc2)c2ccc(-c3cc(C(=O)O)no3)cc12
250	N#Cc1cn(C2CCC2)c2ccc(-c3cc(C(=O)O)no3)cc12
140	N#Cc1cn(C2CCCC2)c2ccc(-c3cc(C(=O)O)no3)cc12

Target: not listed separately
Test: Binding affinity to bovine xanthine oxidase/xanthine substrate complex assessed as inhibition constant
Set-up: species or system Bos taurus
Details: not given

Ki [nM]	SMILES
360	CC(C)n1cc(C#N)c2cc(-c3cc(C(=O)O)no3)ccc21
